Measured values taken from PMC11650737, “Developing MYC Degraders Bearing the Von Hippel–Lindau Ligand to Target the “Undruggable” MYC” (ACS Pharmacology & Translational Science, 2024).
Where “and” joins values, the source holds several entries; their conditions need not be identical. Equal entries are not always repeated. Entries after “also recorded” stand apart in the source; their conditions may differ.

How the values were obtained:
[1] = Stability of PROTACs in cell medium (DMEM), LC-MS/MS; format: physicochemical; conditions: 72 h at 37 °C, 5 μM in DMEM (10% FBS)
Procedure: The stability of selected molecules, such as CSI86, was studied in cell medium over a time frame of 72 h at 37 °C.
The stability of most compounds, including CSI86 PROTAC, was evaluated in DMEM. The drug was prepared at a concentration of 5 μM in DMEM (10% FBS, 1% pen/strep) and aliquoted at approximately 200 μL per Eppendorf. The samples were collected at appropriate time points (0, 1 h, 2 h, 4 h, 8 h, 24 h, 48 h, and 72 h) and stored at −80 °C. On the day of the LC-MS/MS analysis, samples were prepared (50 μL drug in DMEM + 50 μL ACN:H2O + 50 μL IS + 100 μL cold ACN), vortexed, sonicated, and centrifuged at 13 000 rpm for 15 min. Then, samples were transferred into glass tubes, diluted in the initial mobile phase (20% Α – 80% Β), centrifuged for 1 min, and added to a 96-well plate for the LC-MS/MS analysis.

MYC:MAX complex = assay: In vitro MYC-MAX binding assay (GST pull-down); format: biochemical; conditions: compound 150 μM
Procedure: To assess whether the new degraders affect direct interaction of MYC with MAX, we employed a pull-down approach using recombinant proteins that correspond to the bHLHZ regions of MYC and MAX. GST-MYC, bound to glutathione sepharose beads, was incubated with the pyrazole compounds, followed by incubation with His-MAX. Finally, the complex of GST-MYC/HisMAX was eluted by the addition of excess glutathione, while the amount of the eluted complex was assessed by western blotting using anti-MAX antibodies (Figure 5).
Figure 5 Inhibition of the formation of the MYC:MAX complex by the pyrazole compounds. The indicated compounds (150 μM), or the solvent alone (DMSO, used as a control), were incubated with GST-MYC containing glutathione beads for 10 min at […], followed by incubation with His-MAX. […] The complex of GST-MYC:His-MAX was eluted by incubation of the beads with free glutathione. The amount of the eluted complex was analyzed by western blotting (presented in the inset), using anti-MAX antibodies, while the protein bands were quantified with the ImageJ software. The intensity of the bands is presented in the bar graph. […] Statistics were based on the unpaired two-tailed student’s t-test. Data are shown as mean ± SEM.
MYC–MAX complex formation assays were performed using recombinantly produced GST-MYC and His-MAX proteins, following the glutathione GST pull-down principle (Lentzaris et al., in preparation). In this assay, recombinant GST-MYC bound to glutathione beads was preincubated with the indicated compound or vehicle […]. As a negative control, empty beads, i.e., not loaded with GST-MYC, were used. The formed complex was eluted with glutathione, while the amount of bound MAX (indicating the amount of the generated complex) was assessed by Western blotting using anti-MAX antibodies (Abcam) and quantified based on the image J free software. All assays were carried out at least three independent times.

A549 cells [2] = assay: Cell viability (MTT) assay, A549; format: cell-based, human; conditions: 72 h
Procedure: The antiproliferative activity of the synthesized compounds was tested in cell viability assays optimally set up for various cancer cell lines (results are depicted in Table 2, n = 3, average IC50 (μM) ± SD).
Cells were plated at a density of 5 × 10^3 cells per well on 96-well plates. After 24 h of incubation (37 °C, 5% CO2), the cell medium was removed, and compounds were added at selected concentrations (0.1–100 μM), followed by incubation for 72 h. Control cells were treated with 0.4% DMSO medium to match the conditions in the wells where drugs were added. After 72 h, the medium was removed, and the 3-(4,5-dimethylthiazol-2-yl)-2,5-diphenyltetrazolium bromide (MTT) solution (0.3 mg/mL in PBS) was added to cells for 3 h under no light conditions. The MTT solution was removed, and the formazan crystals were dissolved in 100 μL of DMSO. The optical density was measured at 570 nm with a reference wavelength of 690 nm using an absorbance microplate reader (SpectraMax 190, Molecular Devices, Sunnyvale, CA, USA). The half-maximal inhibitory concentration (IC50) was calculated based on a four-parameter logistic equation, generating a cell viability curve, using GraphPad Prism 6.01 (GraphPad Software, Inc.). […] The resulting absorbance values were used instead of IC50 calculation. […]

SKBR3 cells = assay: Cell uptake / intracellular concentration by LC-MS/MS, SKBR3; format: in vitro ADME, human; conditions: SKBR3, 24 h incubation with 10 μM
Procedure: (§1) Therefore, in order to better comprehend the observed activities of our degraders, following incubation of each compound with cells, the intracellular concentrations of the synthesized derivatives were evaluated in different cancer cell lines, as described previously.[28],[29] SKBR3, PC3, or A549 cells were incubated with PROTACs (at a 10 μΜ concentration) for selected time points, respectively. Upon sample treatment, compounds were extracted and analyzed by LC-MS/MS. Table 1 presents the percentage of the molecule that enters the cells after 24 h incubation at the 10 μM concentration. […] The small molecule MYCi361, used as a binding domain component of MYC, was also evaluated in the cell uptake assay (Table 1).
Cells were plated in 24-well plates at a density of 2 × 10^5 cells/well. 24 h after seeding, cells were incubated with each PROTAC (10 μΜ) for certain time points (1 h, 4 h, 8 h, and 24 h). The incubations were terminated at the selected time points by removing the medium and washing the cells twice with 1 mL cold PBS (1×) in each well in order to remove unbound PROTAC. Subsequently, the cells were lysed by adding a cold solution of ACN:H2O (3:2) and scraping off the cell monolayer. This process was done in two steps: first, 200 μL of ACN:H2O was added, the cells were scraped, and the cell lysate was collected. The second step involved the addition of an extra 100 μL of ACN:H2O, scraping, and collection of the remaining lysate. Samples were subsequently vortexed, sonicated, and centrifuged for 10 min at 13 000 rpm. The supernatants were collected, evaporated for 1 h at 55 °C, and stored at −20 °C until the day of analysis. Samples were then reconstituted in 200 μL of initial mobile phase (100% A), and the intracellular accumulation of PROTACs was determined by LC-MS/MS analysis using Warfarin as a stable internal standard and PROTAC standards for the construction of analytical standard curves.
(§2) The percentage of cell uptake was calculated as follows: [drawing 1]

A549 cells [3] = assay: Cell uptake / intracellular concentration by LC-MS/MS, A549; format: in vitro ADME, human; conditions: A549, 24 h incubation with 10 μM
Procedure: as §1
Cells were plated in 24-well plates at a density of 2 × 10^5 cells/well. 24 h after seeding, cells were incubated with each PROTAC (10 μΜ) for certain time points (1 h, 4 h, 8 h, and 24 h). […] Samples were then reconstituted in 200 μL of initial mobile phase (100% A), and the intracellular accumulation of PROTACs was determined by LC-MS/MS analysis using Warfarin as a stable internal standard and PROTAC standards for the construction of analytical standard curves.
as §2

Row | stability in cell medium (DMEM) [1] | IC50 (antiproliferative effect) (A549 cells [2]) | Uptake by cells (SKBR3 cells) | intracellular concentration (SKBR3 cells; corresponding to the uptake) [µM] | Uptake by cells (A549 cells [3]) | Compound | inhibition of MYC:MAX complex formation (binding of His-MAX to GST-MYC) (MYC:MAX complex)
1 | stable | inactive | 26% and 26 ± 5% | 2.6 | 10% and 10 ± 2% | Cc1ncsc1-c1ccc(CNC(=O)[C@@H]2C[C@@H](O)CN2C(=O)[C@@H](NC(=O)CCC(=O)NCCCOc2ccc(-c3cc(C(F)(F)F)nn3C)c(O)c2-c2cc(C(F)(F)F)cc(C(F)(F)F)c2)C(C)(C)C)cc1 [CSI86] | no effect on MYC/MAX dimerization
2 |  |  |  |  |  | Cc1ncsc1-c1ccc(CNC(=O)[C@@H]2C[C@@H](O)CN2C(=O)[C@@H](NC(=O)CCCC(=O)NCCCOc2ccc(-c3cc(C(F)(F)F)nn3C)c(O)c2-c2cc(C(F)(F)F)cc(C(F)(F)F)c2)C(C)(C)C)cc1 [CSI107] | inhibited the binding of HisMAX to MYC; also recorded: inhibits dimerization
